Columns and labels:
[1] = tested on: HSC pool in the bone marrow; experiment: HSC pool in bone marrow following chemotherapy (competitive transplant); assay type: in vivo, C57Bl/6 mice
Method: Wild-type C57Bl/6 mice were treated with 5 mg of cyclophosphamide (Day 1). The day following injection of cyclophosphamide, mice received no treatment or were treated for 8 days with G-CSF (5 μg/day), 11 days with PTH (80 μg/kg/day) or a combination of G-CSF plus PTH. Mice that received a combination of both G-CSF and PTH received G-CSF treatment for 8 days and PTH treatment for 11 days. Following this treatment protocol, mice were injected with cyclophosphamide on Day 15 and treated with G-CSF, PTH or G-CSF and PTH as described above. The treatment protocol was then repeated for two subsequent cycles, as outlined in FIG. 7.
At the end of the four-cycle treatment with cyclophosphamide and G-CSF/PTH, the bone marrow was removed from the treated mice and competitive transplants into B6.SJL mice were performed to measure the maintenance of the HSC pool in the bone marrow. This involved mixing 5×10^5 BM cells from the treated C57Bl/6 mice (CD45.2) with 2.5×10^5 BM cells from the B6.SJL mice (CD45.1). These cells were then injected into lethally irradiated B6.SJL mice. Eighteen weeks following injection of the cells, peripheral blood was collected from the mice and the relative contribution of the HSCs from the treated animals was measured by flow cytometry for the CD45.2^+ cells. To assess the ability of the HSCs to be mobilized into the peripheral circulation, one week following treatment mice were mobilized with G-CSF (5 μg/day) for 5 days. Peripheral blood (300 μl) was collected from these mice and mixed with 2.5×10^5 BM cells from a B6.SJL mouse. These cells were injected into a lethally irradiated B6.SJL host. Eighteen weeks following injection of the cells, peripheral blood was collected from the mice and the relative contribution of the HSCs from the treated animals was measured by flow cytometry for the CD45.2^+ cells.

leukemic cells = experiment: Direct effect of PTH on leukemic cells in vitro; assay type: cell-based
[2] = tested on: hematopoietic stem cells (LTC-ICs) in the bone marrow; experiment: In vivo PTH administration: LTC-IC frequency in bone marrow; set-up: species or system C57Bl/6 mice
Method: Murine bone marrow stromal cells from confluent cultures were irradiated (15Gy) and plated at a concentration of 20,000 cells/well in 96-well plates in long-term culture medium. Cells were then seeded into the plates in two-fold serial limiting dilutions and cultured at 33° C./5% CO2 in a humidified atmosphere. Cultures were maintained for 5 weeks, changing half of the medium in the wells weekly. Following this, the medium was replaced with methylcellulose containing medium supplemented with recombinant cytokines as described above, then scored for colony growth ten days following the addition of the medium.
For PTH administration, 6-8 week old wild type C57/B male mice were used. […] Control mice (n=4) were injected with an equivalent volume of vehicle. At the end of the treatment period, ionized serum calcium was measured by the Ciba/Corning 634 Ca^++/pH analyzer, and, after euthanasia, the hind limbs and forelimbs were dissected and utilized for cytologic and histologic analysis.
As treatment of stromal cells with PTH led to an increase in the ability of the stromal cell population to support hematopoietic stem cells, it was investigated whether these effects could be recapitulated in vivo. Wild-type C57Bl/6 mice were injected daily with PTH using an intermittent dosing schedule known to increase osteoblasts, and the frequencies of LTC-ICs in the bone marrow were measured. […] To further define that functional stem cells were increased after PTH treatment, an in vivo assay of competitive transplantation into secondary recipients was used and a >2-fold increase in HSCs was documented (P=<0.05, FIG. 5f). […] Therefore, pharmacological activation of PPR increased stem cell number, but appeared to do so without a broad hematopoietic cell expansion.

## Rat PTH (1-34)
[1]; PTH, non-G-CSF treated animals
  HSC pool in the bone marrow following myelotoxic chemotherapy: increased the HSC pool
[1]; concurrent treatment with PTH and G-CSF
  HSC pool in the bone marrow following chemotherapy: retention of the HSC pool
Leukemic cells
  direct effect on leukemic cells: did not directly affect
[2]; four weeks PTH treatment, 80 μg/Kg i.p. 5x/week
  hematopoietic stem cells over mock injected mice: significant increase in the hematopoietic stem cells
[2]; four weeks PTH, P<0.005, FIG. 5e
  limit dilution LTC-IC assay, stem-like cells: an increase in stem-like cells
[2]; two week PTH treatment, 80 μg/Kg i.p.
  hematopoietic stem cell population (frequencies of LTC-ICs in the bone marrow): did not result in any significant increase
